Experimental data reported in ChEMBL document CHEMBL5724914, “Linking interpersonal differences in gut microbiota composition and drug biotransformation activity” (2024).

What was measured:
[1] = (§1) The drug is tested on Z-030 corresponding to mouse gut metagenome with ENA study accession number: PRJEB37062 and ENA sample accession number: ERS12561829 for biotransformation under anaerobic condition. The drug concentrations were measured over 9 timepoints collected between 0 and 24 hours of incubation by liquid-chromatography-coupled mass spectrometry (LC–MS); details: 2 µM
[2] = as §1, with “Z-028” for “Z-030”, “ERS12561827” for “ERS12561829”; details: 2 µM
[3] = as §1, with “Z-026” for “Z-030”, “to” for “to mouse gut”, “ERS12561825” for “ERS12561829”; details: 2 µM
[4] = as §1, with “Z-023” for “Z-030”, “to” for “to mouse gut”, “ERS12561822” for “ERS12561829”; details: 2 µM
[5] = as §1, with “Z-021” for “Z-030”, “to” for “to mouse gut”, “ERS12561820” for “ERS12561829”; details: 2 µM
[6] = as §1, with “Z-019” for “Z-030”, “rat” for “mouse”, “ERS12561818” for “ERS12561829”; details: 2 µM
[7] = as §1, with “Z-009” for “Z-030”, “pig” for “mouse”, “ERS12561809” for “ERS12561829”; details: 2 µM
[8] = as §1, with “Z-008” for “Z-030”, “to” for “to mouse gut”, “ERS12561808” for “ERS12561829”; details: 2 µM
[9] = as §1, with “Z-002” for “Z-030”, “rabbit” for “mouse”, “ERS12561802” for “ERS12561829”; details: 2 µM
[10] = as §1, with “WLS-350” for “Z-030”, “human” for “mouse”, “ERS12561789” for “ERS12561829”; details: 2 µM
[11] = as §1, with “WLS-098” for “Z-030”, “human” for “mouse”, “ERS12561754” for “ERS12561829”; details: 2 µM
[12] = as §1, with “WLS-052” for “Z-030”, “human” for “mouse”, “ERS12561747” for “ERS12561829”; details: 2 µM
[13] = as §1, with “WLS-027” for “Z-030”, “human” for “mouse”, “ERS12561744” for “ERS12561829”; details: 2 µM
[14] = human gut metagenome, 24 h, 2 µM
[15] = human gut metagenome, 24 h, 2 µM; remark: listed apart in the source
[16] = human gut metagenome, 24 h, 2 µM; remark: listed apart in the source
[17] = human gut metagenome, 24 h, 2 µM; remark: listed apart in the source
[18] = human gut metagenome, 24 h, 2 µM; remark: listed apart in the source
[19] = human gut metagenome, 24 h, 2 µM; remark: listed apart in the source
[20] = human gut metagenome, 24 h, 2 µM; remark: listed apart in the source
Further: call rule not given here.

COc1ccccc1OCC(O)CN1CCN(CC(=O)Nc2c(C)cccc2C)CC1 (stereo not given) [RANOLAZINE]
Bacterial Biotransformation [1]: Compound NOT metabolized
Bacterial Biotransformation [2]: Compound NOT metabolized
Bacterial Biotransformation [3]: Compound NOT metabolized
Bacterial Biotransformation [4]: Compound metabolized
Bacterial Biotransformation [5]: Compound metabolized
Bacterial Biotransformation [6]: Compound NOT metabolized
Bacterial Biotransformation [7]: Compound NOT metabolized
Bacterial Biotransformation [8]: Compound NOT metabolized
Bacterial Biotransformation [9]: Compound metabolized
Bacterial Biotransformation [10]: Compound NOT metabolized
Bacterial Biotransformation [11]: Compound NOT metabolized
Bacterial Biotransformation [12]: Compound NOT metabolized
Bacterial Biotransformation [13]: Compound NOT metabolized
Bacterial Biotransformation [14]: Compound NOT metabolized
Bacterial Biotransformation [15]: Compound NOT metabolized
Bacterial Biotransformation [16]: Compound NOT metabolized
Bacterial Biotransformation [17]: Compound NOT metabolized
Bacterial Biotransformation [18]: Compound NOT metabolized
Bacterial Biotransformation [19]: Compound NOT metabolized
Bacterial Biotransformation [20]: Compound NOT metabolized

CCCCC1=NC2(CCCC2)C(=O)N1Cc1ccc(-c2ccccc2-c2nnn[nH]2)cc1 [IRBESARTAN]
Bacterial Biotransformation [1]: Compound NOT metabolized
Bacterial Biotransformation [2]: Compound NOT metabolized
Bacterial Biotransformation [3]: Compound NOT metabolized
Bacterial Biotransformation [4]: Compound metabolized
Bacterial Biotransformation [5]: Compound NOT metabolized
Bacterial Biotransformation [6]: Compound NOT metabolized
Bacterial Biotransformation [7]: Compound metabolized
Bacterial Biotransformation [8]: Compound NOT metabolized
Bacterial Biotransformation [9]: Compound metabolized
Bacterial Biotransformation [10]: Compound metabolized
Bacterial Biotransformation [11]: Compound metabolized
Bacterial Biotransformation [12]: Compound metabolized
Bacterial Biotransformation [13]: Compound metabolized
Bacterial Biotransformation [14]: Compound metabolized
Bacterial Biotransformation [15]: Compound metabolized
Bacterial Biotransformation [16]: Compound metabolized
Bacterial Biotransformation [17]: Compound metabolized
Bacterial Biotransformation [18]: Compound metabolized
Bacterial Biotransformation [19]: Compound metabolized
Bacterial Biotransformation [20]: Compound metabolized

COc1ccc2[nH]c([S+]([O-])Cc3ncc(C)c(OC)c3C)nc2c1 (stereo not given) [OMEPRAZOLE]
Bacterial Biotransformation [1]: Compound metabolized
Bacterial Biotransformation [2]: Compound metabolized
Bacterial Biotransformation [3]: Compound metabolized
Bacterial Biotransformation [4]: Compound NOT metabolized
Bacterial Biotransformation [5]: Compound NOT metabolized
Bacterial Biotransformation [6]: Compound NOT metabolized
Bacterial Biotransformation [7]: Compound NOT metabolized
Bacterial Biotransformation [8]: Compound metabolized
Bacterial Biotransformation [9]: Compound NOT metabolized
Bacterial Biotransformation [10]: Compound metabolized
Bacterial Biotransformation [11]: Compound metabolized
Bacterial Biotransformation [12]: Compound metabolized
Bacterial Biotransformation [13]: Compound metabolized
Bacterial Biotransformation [14]: Compound metabolized
Bacterial Biotransformation [15]: Compound metabolized
Bacterial Biotransformation [16]: Compound metabolized
Bacterial Biotransformation [17]: Compound metabolized
Bacterial Biotransformation [18]: Compound metabolized
Bacterial Biotransformation [19]: Compound metabolized
Bacterial Biotransformation [20]: Compound metabolized

NS(=O)(=O)c1cc2c(cc1Cl)N=C(CSCc1ccccc1)NS2(=O)=O [BENZTHIAZIDE]
Bacterial Biotransformation [1]: Compound NOT metabolized
Bacterial Biotransformation [2]: Compound NOT metabolized
Bacterial Biotransformation [3]: Compound NOT metabolized
Bacterial Biotransformation [4]: Compound metabolized
Bacterial Biotransformation [5]: Compound metabolized
Bacterial Biotransformation [6]: Compound NOT metabolized
Bacterial Biotransformation [7]: Compound NOT metabolized
Bacterial Biotransformation [8]: Compound NOT metabolized
Bacterial Biotransformation [9]: Compound metabolized
Bacterial Biotransformation [10]: Compound NOT metabolized
Bacterial Biotransformation [11]: Compound NOT metabolized
Bacterial Biotransformation [12]: Compound NOT metabolized
Bacterial Biotransformation [13]: Compound NOT metabolized
Bacterial Biotransformation [14]: Compound NOT metabolized
Bacterial Biotransformation [15]: Compound NOT metabolized
Bacterial Biotransformation [16]: Compound NOT metabolized
Bacterial Biotransformation [17]: Compound NOT metabolized
Bacterial Biotransformation [18]: Compound metabolized
Bacterial Biotransformation [19]: Compound NOT metabolized
Bacterial Biotransformation [20]: Compound NOT metabolized

CCCCCOC(=O)Nc1nc(=O)n([C@@H]2O[C@H](C)[C@@H](O)[C@H]2O)cc1F [CAPECITABINE]
Bacterial Biotransformation [1]: Compound metabolized
Bacterial Biotransformation [2]: Compound metabolized
Bacterial Biotransformation [3]: Compound NOT metabolized
Bacterial Biotransformation [4]: Compound metabolized
Bacterial Biotransformation [5]: Compound metabolized
Bacterial Biotransformation [6]: Compound NOT metabolized
Bacterial Biotransformation [7]: Compound metabolized
Bacterial Biotransformation [8]: Compound NOT metabolized
Bacterial Biotransformation [9]: Compound metabolized
Bacterial Biotransformation [10]: Compound metabolized
Bacterial Biotransformation [11]: Compound metabolized
Bacterial Biotransformation [12]: Compound metabolized
Bacterial Biotransformation [13]: Compound metabolized
Bacterial Biotransformation [14]: Compound metabolized
Bacterial Biotransformation [15]: Compound metabolized
Bacterial Biotransformation [16]: Compound metabolized
Bacterial Biotransformation [17]: Compound metabolized
Bacterial Biotransformation [18]: Compound metabolized
Bacterial Biotransformation [19]: Compound metabolized
Bacterial Biotransformation [20]: Compound metabolized

CNCCC(Oc1ccc(C(F)(F)F)cc1)c1ccccc1 (stereo not given) [FLUOXETINE]
Bacterial Biotransformation [1]: Compound NOT metabolized
Bacterial Biotransformation [2]: Compound NOT metabolized
Bacterial Biotransformation [3]: Compound NOT metabolized
Bacterial Biotransformation [4]: Compound NOT metabolized
Bacterial Biotransformation [5]: Compound NOT metabolized
Bacterial Biotransformation [6]: Compound NOT metabolized
Bacterial Biotransformation [7]: Compound NOT metabolized
Bacterial Biotransformation [8]: Compound NOT metabolized
Bacterial Biotransformation [9]: Compound NOT metabolized
Bacterial Biotransformation [10]: Compound NOT metabolized
Bacterial Biotransformation [11]: Compound NOT metabolized
Bacterial Biotransformation [12]: Compound NOT metabolized
Bacterial Biotransformation [13]: Compound NOT metabolized
Bacterial Biotransformation [14]: Compound NOT metabolized
Bacterial Biotransformation [15]: Compound NOT metabolized
Bacterial Biotransformation [16]: Compound NOT metabolized
Bacterial Biotransformation [17]: Compound NOT metabolized
Bacterial Biotransformation [18]: Compound metabolized
Bacterial Biotransformation [19]: Compound NOT metabolized
Bacterial Biotransformation [20]: Compound NOT metabolized

CC(C)OC(=O)C(C)(C)Oc1ccc(C(=O)c2ccc(Cl)cc2)cc1 [FENOFIBRATE]
Bacterial Biotransformation [1]: Compound metabolized
Bacterial Biotransformation [2]: Compound metabolized
Bacterial Biotransformation [3]: Compound metabolized
Bacterial Biotransformation [4]: Compound metabolized
Bacterial Biotransformation [5]: Compound NOT metabolized
Bacterial Biotransformation [6]: Compound NOT metabolized
Bacterial Biotransformation [7]: Compound metabolized
Bacterial Biotransformation [8]: Compound metabolized
Bacterial Biotransformation [9]: Compound metabolized
Bacterial Biotransformation [10]: Compound NOT metabolized
Bacterial Biotransformation [11]: Compound metabolized
Bacterial Biotransformation [12]: Compound NOT metabolized
Bacterial Biotransformation [13]: Compound metabolized
Bacterial Biotransformation [14]: Compound NOT metabolized
Bacterial Biotransformation [15]: Compound NOT metabolized
Bacterial Biotransformation [16]: Compound metabolized
Bacterial Biotransformation [17]: Compound metabolized
Bacterial Biotransformation [18]: Compound metabolized
Bacterial Biotransformation [19]: Compound metabolized
Bacterial Biotransformation [20]: Compound metabolized

CC(C)c1c(C(=O)Nc2ccccc2)c(-c2ccccc2)c(-c2ccc(F)cc2)n1CC[C@@H](O)C[C@@H](O)CC(=O)O [ATORVASTATIN]
Bacterial Biotransformation [1]: Compound NOT metabolized
Bacterial Biotransformation [2]: Compound NOT metabolized
Bacterial Biotransformation [3]: Compound NOT metabolized
Bacterial Biotransformation [4]: Compound NOT metabolized
Bacterial Biotransformation [5]: Compound NOT metabolized
Bacterial Biotransformation [6]: Compound NOT metabolized
Bacterial Biotransformation [7]: Compound NOT metabolized
Bacterial Biotransformation [8]: Compound NOT metabolized
Bacterial Biotransformation [9]: Compound metabolized
Bacterial Biotransformation [10]: Compound metabolized
Bacterial Biotransformation [11]: Compound metabolized
Bacterial Biotransformation [12]: Compound metabolized
Bacterial Biotransformation [13]: Compound metabolized
Bacterial Biotransformation [14]: Compound NOT metabolized
Bacterial Biotransformation [15]: Compound NOT metabolized
Bacterial Biotransformation [16]: Compound metabolized
Bacterial Biotransformation [17]: Compound metabolized
Bacterial Biotransformation [18]: Compound metabolized
Bacterial Biotransformation [19]: Compound metabolized
Bacterial Biotransformation [20]: Compound metabolized
